Data published in patent US20060276464A1, “Diarylsulfone sulfonamides and use thereof” (Wyeth, priority 2005, published 2006).
Read-outs that look alike come from different tables or passages of the source.

Legend:
SFRP-1 [1] = target: T1, SFRP-1 (Homo sapiens, UniProt Q8N474); test: Fluorescence polarization binding assay (competitive displacement of a probe compound from SFRP-1); settings: fluorescence anisotropy, 45 nM SFRP-1, 20 nM probe;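 note: test compound competes with a fluorescent probe held by SFRP-1, seen as a drop in probe anisotropy after incubation in darkness, with anisotropy as function of rising compound dose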
T1 sequence (Q8N474 32-314): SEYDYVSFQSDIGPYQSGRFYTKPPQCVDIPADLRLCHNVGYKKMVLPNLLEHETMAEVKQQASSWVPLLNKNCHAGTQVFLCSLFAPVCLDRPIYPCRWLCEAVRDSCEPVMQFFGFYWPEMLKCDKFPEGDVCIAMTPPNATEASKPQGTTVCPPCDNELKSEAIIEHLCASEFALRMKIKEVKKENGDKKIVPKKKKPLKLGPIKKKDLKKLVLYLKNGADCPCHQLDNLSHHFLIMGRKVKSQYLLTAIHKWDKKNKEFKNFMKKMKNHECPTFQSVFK

SFRP-1 [2] = target: T1, SFRP-1; test: Cell-based assay for in vitro measurement of SFRP-1/SARP2 antagonist activity (U2OS cells co-transfected with 16x TCF-tk-Luciferase reporter, Wnt and hSFRP-1); settings: for fold induction at 15 µM / fold induction at 10 µM: U2OS; for fold induction at 10 µM: read-out: Fold Induction with SFRP-1, U2OS cells, single dose 10 μM, luciferase reporter, fold induction over SFRP-1 control;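 for all read-outs here: U2OS cells co-transfected with a TCF-tk luciferase reporter, a Wnt vector, hSFRP-1 or empty vector and CMV-βgal, luciferase luminescence read in cell lysates alongside βgal activity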
[3] = read-out: Fold Induction with SFRP-1, Conc 15 μM, with SFRP-1, fold induction over SFRP-1 control, single dose
[4] = read-out: Fold Induction without SFRP-1, Conc 15 μM, without SFRP-1, single dose
[5] = read-out: Fold Induction with SFRP-1, Conc 15 μM, single dose, luciferase reporter, fold induction over SFRP-1 control, cells with SFRP-1
[6] = read-out: Fold Induction without SFRP-1, Conc 15 μM, single dose, luciferase reporter, cells without SFRP-1 (specificity control)

Cc1ccc(S(=O)(=O)c2ccccc2)cc1S(=O)(=O)NC1CCN(S(C)(=O)=O)CC1 [Example 478, 2-methyl-N-[1-(methylsulfonyl)piperidin-4-yl]-5-(phenylsulfonyl)benzenesulfonamide]
IC50 (SFRP-1 [1]): 1300 nM
fold induction at 15 µM (SFRP-1 [2]; [3]): 2.3
fold induction at 15 µM (SFRP-1 [2]; [4]): 1

CN(CCNS(=O)(=O)c1cc(S(=O)(=O)c2ccccc2)ccc1C(F)(F)F)C(=O)c1ccc(C(C)(C)C)cc1 [Example 838, 4-tert-Butyl-N-methyl-N-[2-({[5-(phenylsulfonyl)-2-(trifluoromethyl)phenyl]sulfonyl}amino)ethyl]benzamide]
IC50 (SFRP-1 [1]): 1200 nM
fold induction at 10 µM (SFRP-1 [2]): 2.5

CN(CCNS(=O)(=O)c1cc(S(=O)(=O)c2ccccc2)ccc1C(F)(F)F)C(=O)N[C@H]1CCCN(C(=O)OC(C)(C)C)C1 [Example 1010, tert-butyl (3S)-3-[({methyl[2-({[5-(phenylsulfonyl)-2-(trifluoromethyl)phenyl]sulfonyl}amino)ethyl]amino}carbonyl)amino]piperidine-1-carboxylate]
IC50 (SFRP-1 [1]): 600 nM
EC50 (SFRP-1 [2]): 2000 nM

Cc1c(Cl)cccc1S(=O)(=O)c1ccc(C(C)C)c(S(=O)(=O)NCCc2ccccn2)c1 [Example 514, 5-[(3-chloro-2-methylphenyl)sulfonyl]-2-isopropyl-N-(2-pyridin-2-ylethyl)benzenesulfonamide]
IC50 (SFRP-1 [1]): 700 nM
fold induction at 15 µM (SFRP-1 [2]; [5]): 2.6
fold induction at 15 µM (SFRP-1 [2]; [6]): 1

COC(=O)COc1ccc2c(c1)CC(NS(=O)(=O)c1cc(S(=O)(=O)c3ccccc3)ccc1C(F)(F)F)C2 (centres unmarked) [Example 1028, methyl{[2-({[5-(phenylsulfonyl)-2-(trifluoromethyl)phenyl]sulfonyl}amino)-2,3-dihydro-1H-inden-5-yl]oxy}acetate]
IC50 (SFRP-1 [1]): 60 nM
EC50 (SFRP-1 [2]): 87 nM

Cc1ccc(S(=O)(=O)c2ccccc2)cc1S(=O)(=O)NC1CCN(C(=O)OCC(C)C)CC1 [Example 498, isobutyl 4-({[2-methyl-5-(phenylsulfonyl)phenyl]sulfonyl}amino)piperidine-1-carboxylate]
IC50 (SFRP-1 [1]): 2200 nM
fold induction at 15 µM (SFRP-1 [2]; [5]): 1.8
fold induction at 15 µM (SFRP-1 [2]; [6]): 1

CC(C)c1ccc(S(=O)(=O)c2ccc(N3CCNCC3)cc2)cc1S(=O)(=O)NC1CCOCC1 [Example 628, 2-isopropyl-5-[(4-piperazin-1-ylphenyl)sulfonyl]-N-(tetrahydro-2H-pyran-4-yl)benzenesulfonamide]
IC50 (SFRP-1 [1]): 3000 nM
fold induction at 15 µM (SFRP-1 [2]; [5]): 3.2
fold induction at 15 µM (SFRP-1 [2]; [6]): 1.1

O=C(c1ccc(C(F)(F)F)cc1F)N1CCC(NS(=O)(=O)c2cc(S(=O)(=O)c3ccccc3)ccc2C(F)(F)F)CC1 [Example 710, N-{1-[2-fluoro-4-(trifluoromethyl)benzoyl]piperidin-4-yl}-5-(phenylsulfonyl)-2-(trifluoromethyl)benzenesulfonamide]
IC50 (SFRP-1 [1]): 700 nM
fold induction at 10 µM (SFRP-1 [2]): 3.5

COC(=O)C1CCC(NS(=O)(=O)c2cc(S(=O)(=O)c3ccccc3)ccc2C(C)C)CC1 (centres unmarked) [Example 933, methyl 4-({[2-isopropyl-5-(phenylsulfonyl)phenyl]sulfonyl}amino)cyclohexanecarboxylate]
IC50 (SFRP-1 [1]): 6000 nM
EC50 (SFRP-1 [2]): 1740 nM
fold induction at 10 µM (SFRP-1 [2]): 2.5

NC(=O)COc1ccc2c(c1)CC(NS(=O)(=O)c1cc(S(=O)(=O)c3ccccc3)ccc1C(F)(F)F)C2 (centres unmarked) [Example 1062, 2-{[2-({[5-(phenylsulfonyl)-2-(trifluoromethyl)phenyl]sulfonyl}amino)-2,3-dihydro-1H-inden-5-yl]oxy}acetamide]
IC50 (SFRP-1 [1]): 10 nM
EC50 (SFRP-1 [2]): 34 nM

Cc1cc(F)ccc1S(=O)(=O)c1ccc(C(C)C)c(S(=O)(=O)NCCc2ccccn2)c1 [Example 596, 5-[(4-fluoro-2-methylphenyl)sulfonyl]-2-isopropyl-N-(2-pyridin-2-ylethyl)benzenesulfonamide]
IC50 (SFRP-1 [1]): 1600 nM
fold induction at 15 µM (SFRP-1 [2]; [5]): 4.2
fold induction at 15 µM (SFRP-1 [2]; [6]): 1.3

CC(C)(C)c1ccc(NC(=O)N2CCC(NS(=O)(=O)c3cc(S(=O)(=O)c4ccccc4)ccc3C(F)(F)F)CC2)cc1 [Example 759, N-(4-tert-butylphenyl)-4-({[5-(phenylsulfonyl)-2-(trifluoromethyl)phenyl]sulfonyl}amino)piperidine-1-carboxamide]
IC50 (SFRP-1 [1]): 1600 nM
fold induction at 10 µM (SFRP-1 [2]): 3.5

O=S(=O)(N[C@H]1CCNC1)c1cc(S(=O)(=O)c2ccccc2)ccc1C(F)(F)F [Example 796, 5-(phenylsulfonyl)-N-[(3S)-pyrrolidin-3-yl]-2-(trifluoromethyl)benzenesulfonamide]
IC50 (SFRP-1 [1]): 600 nM
EC50 (SFRP-1 [2]): 1350 nM
fold induction at 10 µM (SFRP-1 [2]): 4.3

CCc1ccc(S(=O)(=O)c2ccccc2)cc1S(=O)(=O)NC1CCNCC1 [Example 921, 2-ethyl-5-(phenylsulfonyl)-N-piperidin-4-ylbenzenesulfonamide]
IC50 (SFRP-1 [1]): 4000 nM
EC50 (SFRP-1 [2]): 2360 nM
fold induction at 10 µM (SFRP-1 [2]): 2.5

O=C(O)CCCC(=O)N1CCC(CNS(=O)(=O)c2cc(S(=O)(=O)c3ccccc3)ccc2C(F)(F)F)CC1 [Example 903, 5-oxo-5-{4-[({[5-(phenylsulfonyl)-2-(trifluoromethyl)phenyl]sulfonyl}amino)methyl]piperidin-1-yl}pentanoic acid]
IC50 (SFRP-1 [1]): 70 nM
EC50 (SFRP-1 [2]): 795 nM
fold induction at 10 µM (SFRP-1 [2]): 3.5

Cc1ccc(S(=O)(=O)c2ccccc2)cc1S(=O)(=O)NC1CCN(C(=O)c2cccnc2)CC1 [Example 516, 2-methyl-5-(phenylsulfonyl)-N-[1-(pyridin-3-ylcarbonyl)piperidin-4-yl]benzenesulfonamide]
IC50 (SFRP-1 [1]): 2600 nM
fold induction at 15 µM (SFRP-1 [2]; [5]): 3
fold induction at 15 µM (SFRP-1 [2]; [6]): 1

Cc1ccc(S(=O)(=O)c2ccc(F)cc2)cc1S(=O)(=O)NC1CCN(C(=O)N2CCOCC2)CC1 [Example 603, 5-[(4-fluorophenyl)sulfonyl]-2-methyl-N-[1-(morpholin-4-ylcarbonyl)piperidin-4-yl]benzenesulfonamide]
IC50 (SFRP-1 [1]): 8000 nM
fold induction at 15 µM (SFRP-1 [2]; [5]): 2.4
fold induction at 15 µM (SFRP-1 [2]; [6]): 0.9

CN(CCNS(=O)(=O)c1cc(S(=O)(=O)c2ccccc2)ccc1C(F)(F)F)C(=O)c1ccc(CBr)cc1 [Example 983, 4-(bromomethyl)-N-methyl-N-[2-({[5-(phenylsulfonyl)-2-(trifluoromethyl)phenyl]sulfonyl}amino)ethyl]benzamide]
IC50 (SFRP-1 [1]): 800 nM
EC50 (SFRP-1 [2]): 1140 nM

COc1ccc(NC(=S)N2CCC(NS(=O)(=O)c3cc(S(=O)(=O)c4ccc(F)cc4)ccc3C(C)C)CC2)cc1 [Example 695, 4-[({5-[(4-fluorophenyl)sulfonyl]-2-isopropylphenyl}sulfonyl)amino]-N-(4-methoxyphenyl)piperidine-1-carbothioamide]
IC50 (SFRP-1 [1]): 190 nM
EC50 (SFRP-1 [2]): 7100 nM
fold induction at 10 µM (SFRP-1 [2]): 2.1

Cc1ccc(S(=O)(=O)c2ccccc2)cc1S(=O)(=O)NC1CCN(C(=O)c2ccco2)CC1 [Example 449, N-[1-(2-furoyl)piperidin-4-yl]-2-methyl-5-(phenylsulfonyl)benzenesulfonamide]
IC50 (SFRP-1 [1]): 3000 nM
fold induction at 15 µM (SFRP-1 [2]; [3]): 2.8
fold induction at 15 µM (SFRP-1 [2]; [4]): 1.1

COc1ccc(C(=O)N2CCC(NS(=O)(=O)c3cc(S(=O)(=O)c4ccccc4)ccc3C)CC2)cc1OC [Example 464, N-[1-(3,4-dimethoxybenzoyl)piperidin-4-yl]-2-methyl-5-(phenylsulfonyl)benzenesulfonamide]
IC50 (SFRP-1 [1]): 3000 nM
fold induction at 15 µM (SFRP-1 [2]; [3]): 2.1
fold induction at 15 µM (SFRP-1 [2]; [4]): 1
